Test results reported in ChEMBL document CHEMBL5052831, “Serpin inhibitors for the treatment of prion and prion-like diseases” (2021).

system: ScGT1; assay: Inhibition of SERPINA3N in mouse GT1 cells chronically infected with RML prion (ScGT1) assessed as reduction of PrPSc levels measured by western blot analysis; assay type: cell-based; design: concentration or dose not given beside the values

| Compound | Activity |
| --- | --- |
| Nc1c(C(=O)c2c[nH]c3ccccc23)cnn1-c1ccccc1 | 50% |
| Nc1c(C(=O)C2CCN(C(=O)c3ccno3)CC2)cnn1-c1ccccc1 | 50% |
| Cc1n[nH]c(C)c1CNC(=O)c1cnn(-c2ccc(F)cc2)c1 | 50% |
| O=C(NC1CCCOC1)c1cnn(-c2ccc(F)cc2)c1 (configuration not stated) | 50% |
| CC(=O)N1CCC(C(=O)c2cnn(-c3cccc(F)c3)c2N)CC1 | 50% |
| Cc1ccc(-n2ncc(C(=O)C3CCN(C(=O)C4CCC4)C3)c2N)cc1 (configuration not stated) | 50% |
| Cc1ccc(-n2ncc(C(=O)C3CCN(C(=O)c4scnc4C)CC3)c2N)cc1 | 50% |
